Assay results published in patent US9567322B2, “Substituted tetrahydropyrans and method of use” (AbbVie S.á.r.l., priority 2014, dated 2017).

Biological target: T1, F508delCFTR (Homo sapiens, UniProt P13569, DEL508-508)
T1 construct: expressed in transfected cells; host or cells: CFBE41o- (CFBE41o-F508delCFTR-HRP), doxycycline-inducible
Test: Cell Surface Expression-Horse Radish Peroxidase (CSE-HRP) assay
Format: cell-based
Conditions: CFBE41o-F508delCFTR-HRP cells; for EC50: cell surface expression, luminescence readout, 18-24 hours at 33° C., highest concentration tested 20 μM, 8-point curve; for Maximum % activity: maximum at any tested concentration, normalized to on-plate positive control (3 μM) and DMSO
Description: Cell Surface Expression-Horse Radish Peroxidase (CSE-HRP) Assay:
A cellular assay for measuring the F508delCFTR cell surface expression after correction with test compounds was developed in human lung derived epithelial cell line (CFBE41o-) (Veit G et al, (2012) Mol Biol Cell. 23(21): 4188-4202). This was achieved by expressing the F508delCFTR mutation along with a horseradish peroxidase (HRP) in the fourth exofacial loop and then measuring the HRP activity using luminescence readout from these cells, CFBE41o-F508delCFTR-HRP, that were incubated overnight with the test corrector compounds. Briefly, for this primary assay, the CFBE41o-F508delCFTR-HRP cells were plated in 384-well plates (Greiner Bio-one; Cat 781080) at 4,000 cells/well along with 0.5 μg/mL doxycycline to induce the F508delCFTR-HRP expression and further incubated at 37° C., 5% CO2 for 72 hours. The test compounds were then added at the required concentrations and further incubated for 18-24 hours at 33° C. The highest concentration tested was 20 μM with an 8-point concentration response curve using a 3-fold dilution. Three replicate plates were run to determine one EC50. All plates contained negative controls (dimethyl sulfoxide, DMSO) and positive controls (3 μM of 3-[(2R,4R)-4-({[1-(2,2-difluoro-1,3-benzodioxol-5-yl)cyclopropyl]carbonyl}amino)-7-methoxy-3,4-dihydro-2H-chromen-2-yl]benzoic acid) as well as on-plate concentration response of the positive control. Post incubation, the plates were washed 5× times with Dulbecco's phosphate buffered saline (DPBS), followed by the addition of the HRP substrate, luminol (50 μL), and measuring the HRP activity using luminescence readout on EnVision® Multilabel Plate Reader (Perkin Elmer; product number 2104-0010). The raw counts from the experiment are analyzed using Accelrys® Assay Explorer v3.3.
Z′ greater than 0.5 was used as passing quality control criteria for the plates.
The Z′ is defined as: 1−[3*SDPositive Control+3*SDNegative Control/Absolute(MeanPositive Control−MeanNegative Control)],
wherein “SD” is standard deviation.
The % activity measured at each of the 8 test concentrations of the test compound was normalized to the on-plate positive control using the following formula: % activity=[(test compound response−DMSO response)/(positive control response−DMSO response)]*100
The maximum % activity achieved for the test compound at any tested concentration is presented in Table 1 along with the EC50 calculated using the following general sigmoidal curve with variable Hill slope equation (described as Model 42 in the Accelrys® Assay Explorer v3.3 software): y=(a−d)/(1+(x/c)^b)+d General sigmoidal curve with concentration, response, top, bottom, EC50 and Hill slope.
This model describes a sigmoidal curve with an adjustable baseline, a. The equation can be used to fit curves where response is either increasing or decreasing with respect to the independent variable, “x”.
“x” is a concentration of drug under test.
“a” is the maximum response, and “d” is the minimum response
“c” is the inflection point (EC50) for the curve. That is, “y” is halfway between the lower and upper asymptotes when x=c.
“b” is the slope-factor or Hill coefficient. The sign of b is positive when the response increases with increasing dose and is negative when the response decreases with increasing dose (inhibition).

T1 sequence (P13569 with tags, fused parts or gaps DEL508-508): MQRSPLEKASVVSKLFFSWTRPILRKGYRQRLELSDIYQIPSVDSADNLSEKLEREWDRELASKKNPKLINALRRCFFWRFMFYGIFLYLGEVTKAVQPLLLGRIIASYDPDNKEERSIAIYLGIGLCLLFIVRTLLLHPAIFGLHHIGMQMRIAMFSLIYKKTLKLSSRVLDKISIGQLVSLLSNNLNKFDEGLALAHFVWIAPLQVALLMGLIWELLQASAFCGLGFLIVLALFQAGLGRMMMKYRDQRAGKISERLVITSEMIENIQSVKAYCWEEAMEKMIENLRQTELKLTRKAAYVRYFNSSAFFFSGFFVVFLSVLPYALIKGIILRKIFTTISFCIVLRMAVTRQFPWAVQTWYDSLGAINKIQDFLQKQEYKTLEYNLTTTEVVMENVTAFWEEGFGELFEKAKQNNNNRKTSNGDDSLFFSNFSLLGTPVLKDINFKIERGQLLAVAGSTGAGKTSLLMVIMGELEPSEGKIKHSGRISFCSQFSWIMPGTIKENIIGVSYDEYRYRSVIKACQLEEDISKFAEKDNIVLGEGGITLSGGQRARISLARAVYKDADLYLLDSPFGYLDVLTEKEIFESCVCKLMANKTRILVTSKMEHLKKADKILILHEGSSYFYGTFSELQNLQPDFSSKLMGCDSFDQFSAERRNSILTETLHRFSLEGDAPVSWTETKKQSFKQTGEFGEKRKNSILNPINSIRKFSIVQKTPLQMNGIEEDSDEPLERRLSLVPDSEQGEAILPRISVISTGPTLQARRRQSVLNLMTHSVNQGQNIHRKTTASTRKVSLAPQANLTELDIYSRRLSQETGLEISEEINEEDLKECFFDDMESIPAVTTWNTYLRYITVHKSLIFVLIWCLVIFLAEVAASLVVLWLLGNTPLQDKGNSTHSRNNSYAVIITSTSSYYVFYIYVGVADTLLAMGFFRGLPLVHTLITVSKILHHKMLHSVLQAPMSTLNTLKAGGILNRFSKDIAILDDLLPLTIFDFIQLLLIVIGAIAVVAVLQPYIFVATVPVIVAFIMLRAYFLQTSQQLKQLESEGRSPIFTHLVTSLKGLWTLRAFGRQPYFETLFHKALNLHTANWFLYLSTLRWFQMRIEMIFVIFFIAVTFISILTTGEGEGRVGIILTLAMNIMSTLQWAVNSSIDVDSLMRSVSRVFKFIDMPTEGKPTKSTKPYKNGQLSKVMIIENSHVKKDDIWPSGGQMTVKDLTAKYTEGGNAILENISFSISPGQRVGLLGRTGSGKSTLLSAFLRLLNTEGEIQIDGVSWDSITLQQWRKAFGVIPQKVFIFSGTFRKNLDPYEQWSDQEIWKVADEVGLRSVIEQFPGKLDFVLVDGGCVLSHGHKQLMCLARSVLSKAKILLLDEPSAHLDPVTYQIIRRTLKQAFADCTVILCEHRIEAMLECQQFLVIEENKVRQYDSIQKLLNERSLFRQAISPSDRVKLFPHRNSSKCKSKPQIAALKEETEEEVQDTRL

| EC50 [µM] | Maximum % activity [%] | SMILES |
| --- | --- | --- |
| 3.08 | 77 | O=C(O)c1ccc([C@H]2C[C@H](NC(=O)C3(c4ccc5c(c4)OC(F)(F)O5)CC3)C[C@@H](c3ccccc3)O2)cc1 (racemic) [Example 49, rac-4-[(2R,4R,6S)-4-({[1-(2,2-difluoro-1,3-benzodioxol-5-yl)cyclopropyl]carbonyl}amino)-6-phenyltetrahydro-2H-pyran-2-yl]benzoic acid] |
| 0.32 | 119 | Cc1cc(C(=O)O)ccc1[C@H]1C[C@@H](NC(=O)C2(c3ccc4c(c3)OC(F)(F)O4)CC2)CCO1 (stereo in doubt) [Example 43, rel-4-[(2R,4S)-4-({[1-(2,2-difluoro-1,3-benzodioxol-5-yl)cyclopropyl]carbonyl}amino)tetrahydro-2H-pyran-2-yl]-3-methylbenzoic acid] |
| 0.91 | 92 | Cc1ccc(C(=O)O)cc1[C@H]1C[C@@H](NC(=O)C2(c3ccc4c(c3)OC(F)(F)O4)CC2)C[C@@H](c2ccccc2)O1 (racemic) [Example 70, rac-3-[(2R,4S,6S)-4-({[1-(2,2-difluoro-1,3-benzodioxol-5-yl)cyclopropyl]carbonyl}amino)-6-phenyltetrahydro-2H-pyran-2-yl]-4-methylbenzoic acid] |
| 2.62 | 44 | COC(=O)c1cccc([C@@H]2C[C@H](NC(=O)C3(c4ccc5c(c4)OC(F)(F)O5)CC3)CCO2)c1 [Example 16, methyl 3-[(2S,4R)-4-({[1-(2,2-difluoro-1,3-benzodioxol-5-yl)cyclopropyl]carbonyl}amino)tetrahydro-2H-pyran-2-yl]benzoate] |
| 1.41 | 64 | COC(=O)c1cccc([C@H]2C[C@@H](NC(=O)C3(c4ccc5c(c4)OC(F)(F)O5)CC3)CCO2)c1 (racemic) [Example 3, methyl rac-3-[(2R,4S)-4-({[1-(2,2-difluoro-1,3-benzodioxol-5-yl)cyclopropyl]carbonyl}amino)tetrahydro-2H-pyran-2-yl]benzoate] |
| 2.41 | 54 | COc1ccc([C@H]2C[C@@H](NC(=O)C3(c4ccc5c(c4)OC(F)(F)O5)CC3)C[C@@H](c3ccc(C(=O)O)cc3)O2)cc1 (single isomer, unassigned) [Example 67] |
| 0.58 | 90 | COc1ccc([C@@H]2C[C@H](NC(=O)C3(c4ccc5c(c4)OC(F)(F)O5)CC3)C[C@H](c3ccc(C(=O)O)cc3)O2)cc1 (racemic) [Example 57, rac-4-[(2R,4R,6S)-4-({[1-(2,2-difluoro-1,3-benzodioxol-5-yl)cyclopropyl]carbonyl}amino)-6-(4-methoxyphenyl)tetrahydro-2H-pyran-2-yl]benzoic acid] |
| 2.26 | 61 | O=C(N[C@H]1CCO[C@@H](c2cccc(CO)c2)C1)C1(c2ccc3c(c2)OC(F)(F)O3)CC1 (racemic) [Example 9, rac-1-(2,2-difluoro-1,3-benzodioxol-5-yl)-N-{(2R,4S)-2-[3-(hydroxymethyl)phenyl]tetrahydro-2H-pyran-4-yl}cyclopropanecarboxamide] |
| 2.54 | 82 | O=C(O)c1ccc([C@H]2C[C@H](NC(=O)C3(c4ccc5c(c4)OC(F)(F)O5)CC3)C[C@@H](c3ccccc3)O2)c(F)c1 (racemic) [Example 61, rac-4-[(2R,4R,6S)-4-({[1-(2,2-difluoro-1,3-benzodioxol-5-yl)cyclopropyl]carbonyl}amino)-6-phenyltetrahydro-2H-pyran-2-yl]-3-fluorobenzoic acid] |
| 2.48 | 84 | COC(=O)c1ccc([C@H]2CC(NC(=O)C3(c4ccc5c(c4)OC(F)(F)O5)CC3)C[C@@H](C3CC3)O2)cc1 (mixture of isomers) [Example 38, methyl rac-4-[(2R,6S)-6-cyclopropyl-4-({[1-(2,2-difluoro-1,3-benzodioxol-5-yl)cyclopropyl]carbonyl}amino)tetrahydro-2H-pyran-2-yl]benzoate] |
| 6.87 | 36 | Cc1cc(C(=O)O)ccc1[C@@H]1C[C@H](NC(=O)C2(c3ccc4c(c3)OC(F)(F)O4)CC2)CCO1 (stereo in doubt) [Example 42, rel-4-[(2S,4R)-4-({[1-(2,2-difluoro-1,3-benzodioxol-5-yl)cyclopropyl]carbonyl}amino)tetrahydro-2H-pyran-2-yl]-3-methylbenzoic acid] |
| 1.71 | 71 | O=C(O)c1ccc([C@@H]2C[C@H](NC(=O)C3(c4ccc5c(c4)OC(F)(F)O5)CC3)C[C@H](c3ccccc3)O2)cc1 (single isomer, unassigned) [Example 54] |
| 0.47 | 115 | Cc1cc(C(=O)O)ccc1[C@H]1C[C@@H](NC(=O)C2(c3ccc4c(c3)OC(F)(F)O4)CC2)CCO1 (stereo in doubt) [Example 37, rac-4-[(2R,4S)-4-({[1-(2,2-difluoro-1,3-benzodioxol-5-yl)cyclopropyl]carbonyl}amino)tetrahydro-2H-pyran-2-yl]-3-methylbenzoic acid] |
| 1.16 | 106 | CCOC(=O)c1cc(C)cc([C@H]2C[C@@H](NC(=O)C3(c4ccc5c(c4)OC(F)(F)O5)CC3)C[C@@H](c3ccccc3)O2)c1 (racemic) [Example 72, ethyl rac-3-[(2R,4S,6S)-4-({[1-(2,2-difluoro-1,3-benzodioxol-5-yl)cyclopropyl]carbonyl}amino)-6-phenyltetrahydro-2H-pyran-2-yl]-5-methylbenzoate] |
| 0.57 | 100 | COC(=O)c1ccc([C@H]2C[C@@H](NC(=O)C3(c4ccc5c(c4)OC(F)(F)O5)CC3)CCO2)c(C)c1 (racemic) [Example 36, methyl rac-4-[(2R,4S)-4-({[1-(2,2-difluoro-1,3-benzodioxol-5-yl)cyclopropyl]carbonyl}amino)tetrahydro-2H-pyran-2-yl]-3-methylbenzoate] |
| 2.87 | 89 | CC1(C)C[C@H](NC(=O)C2(c3ccc4c(c3)OC(F)(F)O4)CC2)C[C@H](c2ccc(C(=O)O)cc2)O1 (racemic) [Example 35, rac-4-[(2R,4R)-4-({[1-(2,2-difluoro-1,3-benzodioxol-5-yl)cyclopropyl]carbonyl}amino)-6,6-dimethyltetrahydro-2H-pyran-2-yl]benzoic acid] |
| 1.9 | 89 | COc1ccc([C@@H]2C[C@@H](NC(=O)C3(c4ccc5c(c4)OC(F)(F)O5)CC3)C[C@H](c3ccc(C(=O)O)cc3)O2)cc1 (racemic) [Example 56, rac-4-[(2R,4S,6S)-4-({[1-(2,2-difluoro-1,3-benzodioxol-5-yl)cyclopropyl]carbonyl}amino)-6-(4-methoxyphenyl)tetrahydro-2H-pyran-2-yl]benzoic acid] |
| 7.37 | 63 | C[C@H]1C[C@@H](NC(=O)C2(c3ccc4c(c3)OC(F)(F)O4)CC2)C[C@@H](c2ccc(C(=O)O)cc2)O1 (single isomer, unassigned) [Example 58] |
| 0.22 | 105 | Cc1cc(C(=O)O)cc([C@H]2C[C@@H](NC(=O)C3(c4ccc5c(c4)OC(F)(F)O5)CC3)C[C@@H](c3ccccc3)O2)c1 (single isomer, unassigned) [Example 75] |
